Assays:
[1] = test system: ATMs in perigonadal adipose tissue; assay: CL316,243 treatment of lean mice: ATM content in perigonadal adipose tissue; assay type: in vivo, C57BL/6J mice
Description: Ten 8-week-old C57BL/6J mice fed the standard pellet diet (see above) were injected intraperitoneally with 1 mg/kg of CL316,243 or saline twice (4 hours between each injection). Mice were sacrificed 14 hours after the second injection. Perigonadal adipose tissue was excised and samples were stored as described above.
Adipose tissue samples were fixed for 48 hours at room temperature in zinc-formalin fixative (Anatech Ltd.), incubated in 70% ethanol for 24 hours, and subsequently embedded in paraffin. […] For each individual adipose tissue depot, 5-10 different high-power fields from each of 3 different sections were analyzed. The total number of nuclei and the number of nuclei of F4/80-expressing cells were counted for each field. The fraction of F4/80-expressing cells for each sample was calculated as the sum of the number of nuclei of F4/80-expressing cells divided by the total number of nuclei in sections of a sample. Cross-sectional area was determined for each adipocyte in each field using image analysis software Image-Pro Plus (Media Cybernetics Inc.). For each mouse, 800-1000 adipocytes were counted. Adipocyte number was calculated from fat pad weight and adipocyte volume (48). […] For each individual adipose tissue depot, 10 different high-power fields from each of 3 different sections were analyzed. […]

[2] = test system: perigonadal adipose tissue explants; assay: Lipolysis (FFA release) of perigonadal adipose tissue explants with isoproterenol; assay type: cell-based, C57BL/6J mice; design: dose or concentration left out as unconfirmed; settings: explants from lean ad libitum-fed mice
Description: Perigonadal fat pads were surgically removed from high-fat-fed C57BL/6J mice (n=5/group), which were either ad libitum fed or were undergoing caloric restriction. Subsequently, they were washed several times with PBS. Tissue pieces (−100 mg total weight) were incubated in DMEM (Invitrogen) containing 2% fatty acid-free BSA (Sigma-Aldrich) at 37° C. Aliquots were collected after 120 minutes and investigated for FFA and glycerol content. FFA and glycerol were measured using the HR NEFA series (Wako Diagnostics) and the free glycerol determination kit (Sigma-Aldrich), respectively. We measured adipocyte numbers in parallel samples from weight- and fat-matched ad libitum-fed and calorically restricted mice.
(§1) Explant-conditioned media, plain media, or media containing recombinant MCP-1 (50 ng/ml) (PeproTech) were added into the lower chamber. To obtain explant-conditioned media, explants were isolated from lean 10-week-old C57BL/6J mice that were ad libitum fed or fasted for 24 hours. […] Explant FFA content was evaluated using the HR NEFA series (Wako Diagnostics). […] At the end of the incubation, cells were detected by a green fluorescent dye (CyQUANT dye) included in the assay. Fluorescence intensity was measured with the Infinite 500 (Tecan). Cell numbers were determined based on fluorescence readings and a standard curve.

[3] = test system: bone marrow-derived macrophages (BMDMs); assay: Macrophage migration assay with explant-conditioned media; assay type: cell-based, C57BL/6J mice; settings: explant-conditioned medium, isoproterenol-treated explants; comparable to MCP-1/CCL2 (50 ng/ml)
From the text: Murine BMDMs were differentiated in vitro from bone marrow precursor cells. Briefly, bone marrow cells were flushed from femurs and tibias of 9-week-old C57BL/6J mice, washed in DMEM (Invitrogen), and grown for 7 days in Petri dishes containing DMEM with 10% FBS, 20% L929 cell-conditioned media, 5% horse serum, 1% glutamine, and 1% sodium pyruvate. On the seventh day, media were replaced with DMEM containing 10% FBS, 10% L929 cell-conditioned media, 5% horse serum, 1% glutamine, and 1% sodium pyruvate; macrophages were grown for 3 more days. Differentiation was confirmed by FACS analysis. BMDM migration was evaluated using the QCM chemotaxis […] 96-well cell migration assay (Millipore) according to the manufacturer's instructions.
as §1

[4] = test system: stromal vascular cells (SVCs); assay: Co-culture of SVCs with adipose tissue with or without isoproterenol; assay type: cell-based, C57BL/6J mice
Description: RNA was isolated from SVCs using the QIAGEN RNeasy Minikit (QIAGEN) and used as template for cDNA synthesis using Superscript III reverse transcriptase (Invitrogen) and random hexamer primers. Quantitative RT-PCR assays were carried out using DNA Engine Opticon 2 system instruments (Bio-Rad) and PCR SYBR Green I QuantiTect Master Mix (QIAGEN). The mRNA expression of all genes reported is normalized to the cyclophilin B (Ppib) gene expression. Every reaction was performed in duplicate, and the data were analyzed with the 2-DDCT method (49). To isolate SVCs, perigonadal adipose tissue was isolated from high-fat diet-induced obese C57BL/6J male mice immediately after CO2 asphyxiation. Tissues were handled using sterile techniques and minced into fine (<10 mg) pieces. For SVC isolation, minced samples were placed in DMEM (Invitrogen) supplemented with 10 mg/ml BSA (Sigma-Aldrich). An LPS-depleted collagenase cocktail (Liberase 3; Roche Applied Science) at a concentration of 0.03 mg/ml was added to the tissue suspension, and the samples were incubated at 37° C. on an orbital shaker (200 g) for 45 minutes. Once digestion was complete, samples were passed through a sterile 250-mm nylon mesh (Sefar America Inc.). The suspension was centrifuged at 500 g for 5 minutes. The pelleted cells were collected as SVCS. The SVCS were resuspended in erythrocyte lysis buffer (BD Biosciences) and incubated at room temperature for 1 minute. SVCS were plated at a concentration of 650,000 cells/well on cell culture inserts with 1-mm pore size (BD). Each insert was placed in a well of a 12-well tissue culture plate (BD) containing 100 mg of finely minced adipose tissue. To isolate small intact pieces of adipose tissue for culture, perigonadal adipose tissue was remove from high-fat-fed obese C57BL/6J mice and minced to approximately 10-mg size pieces. SVCS were cocultured with adipose tissue pieces for 24 hours in DMEM containing 10% FBS, 1% penicillin, and 2% fatty acid-free BSA. Isoproterenol (Sigma-Aldrich) was added in selected wells at a concentration of 10 mmoles/1. The stromal vascular fraction was collected for gene expression or oil red 0 staining after 24 hours. SVCS were air-dried and fixed with zinc-formalin fixative (see above) for 10 minutes and stained oil red O as previously described (50).

SMILES	increase of ATM content in perigonadal adipose tissue ([1]; lean C57BL/6J mice, 1 mg/kg intraperitoneally twice 4 hours apart, tissue 14 hours after final injection, vs control-treated mice)	inflammatory phenotype of adipose tissue (expression of inflammatory markers) ([1]; lean mice, CL316,243 vs vehicle, perigonadal adipose tissue)	lipolysis as release of FFA from explants [2]	chemotactic activity of adipose tissue toward BMDMs [3]	SVC gene expression or lipid accumulation ([4]; SVCs cultured in the absence of adipose tissue, 24 hours)	lipid accumulation within SVCs (oil red O) ([4]; coculture with adipose tissue plus isoproterenol)	Ccr2 gene expression in the SVC fraction ([4]; coculture with adipose tissue plus isoproterenol stimulation)	program of adipocyte differentiation in SVCs (adiponectin, leptin, Pparg expression) ([4]; in the presence of adipose tissue)	Adfp gene expression in SVCs ([4]; in the presence of adipose tissue, 24 hours)	Cd36 expression in SVCs ([4]; in the presence of adipose tissue, P=0.09)
C[C@H](Cc1ccc2c(c1)OC(C(=O)[O-])(C(=O)[O-])O2)NC[C@H](O)c1cccc(Cl)c1.[Na+].[Na+] [CL316,243]	more than 5 fold	do not increase the inflammatory phenotype of adipose tissue								
CC(C)NCC(O)c1ccc(O)c(O)c1 (stereo not shown) [isoproterenol]			increased lipolysis	proportional increase in the chemotactic activity	no effect	accumulation of lipid within SVCS	induced Ccr2 gene expression	no activation of a program of adipocyte differentiation	induced the expression of the gene Adfp	increased
